# According to patent US8399214B2 (Evonik Degussa GmbH, priority 2005, dated 2013):
# “And” between values parts separate entries of the source, which are not always exact repeats. Identical values can stand only once. Like-named read-outs stand apart in the source and are kept apart here.
# How the values were obtained:
# [1] = system: E. coli CGSC 3592 (metF64); assay: Growth on methionine free agar with DMDS in a centre well; type: cell-based; settings: 50 microliters DMDS in well, 30° C.
# Experimental: (§1) The selection was for resistance to kanamycin sulfate at 25 mg/L on rich medium […] agar).
# [2] = system: E. coli RY714B (metE::Tn10, ΔmetH); assay: as above; type: cell-based; settings: 50 microliters DMDS in well, 30° C.
# Experimental: as §1
# [3] = system: C. glutamicum OM101C (ΔmetF, ΔmetB); type: cell-based; settings: XAD4, 24 hours at 30° C.
# Experimental: (§2) To each test tube 100 μl of a sterile suspension of XAD4 in water (50% v/v) was added.
# [4] = system: C. glutamicum OM246C (ΔmetE, ΔmetH); type: cell-based; settings: XAD4, 24 hours at 30° C.
# Experimental: as §2
# OM101 (ΔmetB,ΔmetF) = assay: Lawn growth on methionine-free agar plates with liquid or gaseous DMDS; type: cell-based, C. glutamicum; settings: for killing zone: 48-60 hours
# Experimental: Control plates received the lawn of cells, but no DMDS. The plates were placed together in a sealed polypropylene plastic box that was slightly bigger than the stack of plates and incubated at 30° C. for 48-60 hours. […] Normally, when a required nutrient is placed in the middle of a lawn that is auxotrophic for the nutrient, a gradient of growth is seen, with the most rapid growth occurring closest to the nutrient.
# The plates were incubated at 30° C. enclosed in an airtight plastic box. […] This could be accomplished by evaporating or boiling DMDS and pumping the DMDS vapor into the fermentation vessel, or by bubbling air or oxygen through liquid DMDS on its route to the fermentation vessel.
# [5] = system: C. glutamicum OM246C (ΔmetH, ΔmetE); type: cell-based; settings: 24 hours at 30° C.
# Source text: (§3) Other possible delivery systems include synthetic oils, organic solvents, chloro-carbons, fluoro-carbons, or chloro-fluoro-carbons.
# [6] = system: C. glutamicum OM174 (ΔmetF, ΔmetB, ΔmetY); settings: DMDS 0.2%, XAD4, 60 hours at 30° C.
# Experimental: (§7) A test tube experiment was performed with M2014 derivatives that contain different combinations of deletions of metY, metB, and metF. […] The inoculum was approximately 5×10^3 cells per tube. Cells were grown at 30° C. in a platform shaker for 60 hours, and cell densities were measured at OD600.
# [7] = system: C. glutamicum OM63 (ΔmetF); type: cell-based; settings: 36 hours at 30° C.
# Source text: (§4) M2014 was transformed with plasmid pOM86 (FIG. 9) (SEQ ID NO:8) to yield a “Campbell in” strain. The “Campbell in” strain was then “Cambelled out” to yield a “Campbell out” strain named OM63.
# C. glutamicum M2014 [8] = assay: Test tube growth in methionine-free medium with canola oil as DMDS delivery system; type: cell-based; settings: MF + Canola Oil + 0.2% DMDS, 24 hours at 30° C.
# Source text: as §3
# [9] = system: C. glutamicum OM63 (ΔmetF)
# Experimental: To this end, test tube experiments using 5 ml of medium were performed on OM63 and M2014.
# as §2
# C. glutamicum M2014 [10] = assay: Test tube growth in methionine-free medium with mineral oil as DMDS delivery system; settings: for Optical densities at 600 nm: 24 hours at 30° C.
# Source text: as §3
# C. glutamicum OM246C = assay: Shake flask study in molasses medium with XAD4, amino acid production with DMDS; type: cell-based; settings: 80 μl DMDS (0.4% v/v), XAD4, 30° C.
# Experimental: (§5) Samples were taken from the medium and assayed for amino acid content. […] (AGILENT). A pre-column derivatization of the sample with ortho-phthalaldehyde allowed the quantification of produced amino acids after separation on a Hypersil AA-column (AGILENT).
# (§6) A shake flask experiment was performed where OM246C was compared to M2014. […] Thus, the production of methionine occurs from the conversion of O-acetyl-homoserine directly to methionine, bypassing homocysteine.
# C. glutamicum M2014 [11] = assay: as above; type: cell-based; settings: strain 2014, 80 μl DMDS (0.4% v/v), XAD4, 30° C.
# Experimental: as §5, §6
# [12] = system: C. glutamicum M2014 (parent); assay: Test tube growth in methionine-free medium, DMDS added directly; settings: for Optical densities at 600 nm: M2014, 36 hours at 30° C.
# Source text: as §4
# [13] = system: C. glutamicum OM101 (ΔmetF, ΔmetB); settings: DMDS 0.2%, XAD4, 60 hours at 30° C.
# Experimental: as §7
# [14] = system: C. glutamicum OM246C (ΔmetH, ΔmetE); settings: for Optical densities at 600 nm: OM246C, 24 hours at 30° C.
# Source text: as §3
# [15] = system: C. glutamicum OM158 (ΔmetF, ΔmetY); settings: DMDS 0.2%, XAD4, 60 hours at 30° C.
# Experimental: as §7
compound,measurement,setting,value
"CSSC [DMDS, dimethyl disulfide]",growth on methionine free agar with DMDS,[1]; CGSC 3592 transformed with empty vector pCLIK,neither strain transformed with empty vector pCLIK grew
same,growth on methionine free agar with DMDS,[1]; CGSC 3592 transformed with pH309 or pH357 (metY),grew on the plates
same,growth on methionine free agar with DMDS,[2]; RY714B transformed with empty vector pCLIK,neither strain transformed with empty vector pCLIK grew
same,growth on methionine free agar with DMDS,[2]; RY714B transformed with pH309 or pH357 (metY),grew on the plates
same,Optical densities at 600 nm,[3]; DMDS 0.1%,2.5 and 2.7
same,Optical densities at 600 nm,[3]; DMDS 0.2%,3.1 and 3.9
same,Optical densities at 600 nm,[3]; DMDS 0.3%,1.6 and 0.8
same,Optical densities at 600 nm,[3]; DMDS 0.4%,0.05 and 0.03
same,Optical densities at 600 nm,[3]; DMDS 0.5%,0.02 and 0.01
same,Optical densities at 600 nm,[4]; DMDS 0.1%,4.3 and 4.5
same,Optical densities at 600 nm,[4]; DMDS 0.2%,4.2 and 3.8
same,Optical densities at 600 nm,[4]; DMDS 0.3%,3.3 and 3.6
same,Optical densities at 600 nm,[4]; DMDS 0.4%,3.6 and 3.2
same,Optical densities at 600 nm,[4]; DMDS 0.5%,3.1 and 2.4
same,growth of OM101 lawn,"OM101 (ΔmetB,ΔmetF); 50 μl liquid DMDS in polypropylene cap, reaches cells only through gaseous state, 30° C., two days",complete bacterial lawn
same,killing zone,"OM101 (ΔmetB,ΔmetF); 50 μl liquid DMDS placed into a well in the agar, 30° C.",no killing zone
same,killing zone,"OM101 (ΔmetB,ΔmetF); 50 μl liquid DMDS spotted directly on the lawn, 30° C.",approximately 30 mm
same,toxicity of DMDS in the gas state to OM101,"OM101 (ΔmetB,ΔmetF); gas state",not toxic
same,Optical densities at 600 nm,[5]; MF + Canola Oil + 0.2% DMDS,1.9 and 1.7
same,Optical densities at 600 nm,[5]; MF + Canola Oil + 0.4% DMDS,1.1 and 1.3
same,Optical densities at 600 nm,[5]; MF + Canola Oil + 0.8% DMDS,0.0
same,OD600,[6],0.0
same,Optical densities at 600 nm,[7]; MF + 0.02% DMDS,5.4
same,Optical densities at 600 nm,[7]; MF + 0.04% DMDS,5.9
same,Optical densities at 600 nm,[7]; MF + 0.06% DMDS,5.2
same,Optical densities at 600 nm,[7]; MF + 0.08% DMDS,0.2
same,Optical densities at 600 nm,[7]; MF + 0.1% DMDS,0.0
same,Optical densities at 600 nm,C. glutamicum M2014 [8],1.5 and 1.4
same,Optical densities at 600 nm,"[9]; DMDS 0.1%, XAD4, 24 hours at 30° C.",3.0 and 3.3
same,Optical densities at 600 nm,"[9]; DMDS 0.1%, XAD4, 42 hours at 30° C.",6.3
same,Optical densities at 600 nm,"[9]; DMDS 0.2%, XAD4, 24 hours at 30° C.",1.7 and 3.4
same,Optical densities at 600 nm,"[9]; DMDS 0.2%, XAD4, 42 hours at 30° C.",6.5
same,OD600,"[9]; DMDS 0.2%, XAD4, 60 hours at 30° C.",1.2 and 1.3
same,Optical densities at 600 nm,"[9]; DMDS 0.3%, XAD4, 24 hours at 30° C.",3.9 and 2.1
same,Optical densities at 600 nm,"[9]; DMDS 0.3%, XAD4, 42 hours at 30° C.",4.9
same,Optical densities at 600 nm,"[9]; DMDS 0.4%, XAD4, 24 hours at 30° C.",1.5 and 1.6
same,Optical densities at 600 nm,"[9]; DMDS 0.4%, XAD4, 42 hours at 30° C.",3.6
same,Optical densities at 600 nm,"[9]; DMDS 0.5%, XAD4, 24 hours at 30° C.",0.1
same,Optical densities at 600 nm,"[9]; DMDS 0.5%, XAD4, 42 hours at 30° C.",1.6
same,maximum amount of DMDS that allowed cell growth,[9]; DMDS with Amberlite XAD4,0.4%
same,maximum amount of DMDS that allowed cell growth,C. glutamicum M2014 [10]; DMDS in mineral oil,0.8%
same,Optical densities at 600 nm,C. glutamicum M2014 [10]; MF + Mineral Oil + 0.2% DMDS,1.4 and 1.2
same,Optical densities at 600 nm,C. glutamicum M2014 [10]; MF + Mineral Oil + 0.4% DMDS,1.5 and 1.3
same,Optical densities at 600 nm,C. glutamicum M2014 [10]; MF + Mineral Oil + 0.8% DMDS,1.4 and 1.7
same,Optical densities at 600 nm,C. glutamicum M2014 [10]; MF + Mineral Oil + 1.2% DMDS,0.0
same,Gly + Hse,C. glutamicum OM246C,1.7 g/L and 1.3 g/L
same,Ile,C. glutamicum OM246C,0.0 g/L
same,Lys,C. glutamicum OM246C,3.2 g/L and 3.4 g/L
same,OD600,C. glutamicum OM246C,32 and 35
same,O—Ac-hse,C. glutamicum OM246C,4.6 g/L and 4.3 g/L
same,Gly + Hse,C. glutamicum M2014 [11],1.0 g/L and 1.4 g/L
same,Ile,C. glutamicum M2014 [11],0.0 g/L
same,Lys,C. glutamicum M2014 [11],2.5 g/L
same,OD600,C. glutamicum M2014 [11],38 and 30
same,O—Ac-hse,C. glutamicum M2014 [11],4.3 g/L and 3.6 g/L
same,Optical densities at 600 nm,[12]; MF + 0.02% DMDS,5.5
same,Optical densities at 600 nm,[12]; MF + 0.04% DMDS,5.3
same,Optical densities at 600 nm,[12]; MF + 0.06% DMDS,6.6
same,Optical densities at 600 nm,[12]; MF + 0.08% DMDS,0.0
same,Optical densities at 600 nm,[12]; MF + 0.1% DMDS,0.0
same,amount of DMDS tolerated by the cells,[12]; added directly to liquid cultures,less than 0.06%
same,amount at which DMDS is toxic,[12]; added directly to liquid cultures of C. glutamicum,greater than 0.06%
same,OD600,[13],2.4 and 1.8
same,maximum amount of DMDS that allowed cell growth,"[14]; DMDS in mineral oil, strain printed as OM63",0.4%
same,Optical densities at 600 nm,[14]; MF + Mineral Oil + 0.2% DMDS,1.1 and 1.6
same,Optical densities at 600 nm,[14]; MF + Mineral Oil + 0.4% DMDS,1.2 and 1.5
same,Optical densities at 600 nm,[14]; MF + Mineral Oil + 0.8% DMDS,0.0
same,Optical densities at 600 nm,[14]; MF + Mineral Oil + 1.2% DMDS,0.0
same,OD600,[15],0.0
